Measured values taken from patent EP0343258B1, “AGENT FOR PROPHYLAXIS AND TREATMENT OF VIRALLY INFECTED DISEASES” (MITSUI TOATSU CHEMICALS, Inc., priority 1987, dated 1989).
Non-standard residues stand in square brackets, D forms with d. Residues, ends and D or L forms follow the SMILES beside them. pGlu = O=C1CC[C@@H](C(=O)O)N1

Columns and labels:
[1] = Toxicity test, repeated subcutaneous administration to rats; type: in vivo, wister rats; conditions: 30 mg/kg subcutaneously for consecutive 21 days
Source text: (§1) Thus, the medicament of the present invention is a safe medicament of extremely low toxicity and can be administered for a long period of time.

[2] = Toxicity test, repeated subcutaneous administration to mice; type: in vivo, ddy male mice
Source text: as §1

REO virus type II = assay: Jerne plaque assay (antibody-forming cells against SRBC) in REO virus-infected new-born NC mice; type: in vivo; conditions: 10⁵ PFU REO virus; MDP 20 µg/mouse with Freund incomplete adjuvant, given with SRBC 2 weeks after infection; measured 4 days later
Procedure: Two weeks after the infection of 10⁵ PFU REO virus, sheep red blood cells (referred to hereinafter simply as SRBC) was intraperitoneally administered and 4 days after the administration, the number of hemolysis plaques was measured by way of Jerne plaque assay as a production amount of antibody-forming cells against SRBC. The number of hemolysis plaques was 15±2 per 10⁶ spleen cells in a group not infected with REO virus, while that was 2.8±1.6 in an infected group, thus showing a remarkable immunity inhibitory state. In compliance with this, atrophy of thymus and decrease in the number of thymic cortex lymphocytes were observed.
In a group to which muramyl dipeptide was administered in an amount of 20 µg/mouse together with Freund incomplete adjuvant, the number of hemolysis plaques was 11±2.
Next, recovery of the immune function by immunity-enhancing substance was examined, using new-born mice infected with REO virus type II. Two weeks after the infection of the mice with the virus, sheep red blood cells were administered to the mice, and 4 days after the administration, Jerne plaque assay was carried out to measure the number of hemolysis plaques. […]
Mice infected with virus was immunized at the same time with SRBC and an immunostimulant, and 4 days after the immunization, the number of hemolysis plaques was measured by Jerne plaque assay. […]

SMILES | abnormal symptom in external behavior observation, biochemical diagnosis of sera and pathological anatomy [1] | toxicity [1] | toxicity ([2]; 50 mg/kg and 100mg/kg subcutaneously for consecutive 14 days) | abnormal symptom by external check ([2]; 100 mg/kg subcutaneously every day for consecutive 14 days) | PFC/10⁶ spleen cells (REO virus type II) [PFC/10⁶ spleen cells]
C[C@H](NC(=O)[C@@H]1CCC(=O)N1)C(=O)N[C@@H](CCCCN)C(=O)N[C@@H](CO)C(=O)N[C@@H](CCC(N)=O)C(=O)NCC(=O)NCC(=O)N[C@@H](CO)C(=O)N[C@@H](CC(N)=O)C(=O)O [FTS, pGlu-Ala-Lys-Ser-Gln-Gly-Gly-Ser-Asn] ([pGlu]AKSQGGSN-OH) | no abnormal symptom was found | No toxicity was observed | No toxicity was observed | no abnormal symptom was found | –
CC(=O)N[C@H]1C(O)O[C@H](CO)[C@@H](O)[C@@H]1O[C@H](C)C(=O)N[C@@H](C)C(=O)N[C@H](CCC(=O)O)C(N)=O (some centres unmarked) [MDP, muramyl dipeptide] | – | – | – | – | 11±2
